Assay results from patent US9066923B2, “Methods for Alzheimer's disease treatment and cognitive enhancement” (Blanchette Rockefeller Neurosciences Institute, priority 2002, dated 2015).

Tests used:
[1] = system: patients suffering from moderately advanced Alzheimer's Disease; conditions: 2000 IU/day (Burke et al. 1999); cited from earlier work
[2] = system: diacylglycerol-protein kinase C; conditions: aorta of diabetic rats and cultured rat smooth muscle cells exposed to elevated glucose (Kunisaki et al. 1994); cited from earlier work
rats = assay: Morris Water Maze; type: in vivo, rat; conditions: intraventricular injection
Text: (See, for example, Hollister, L. E., 1990, Pharmacopsychiat., 23, (Suppl II) 33-36). The available animal models of memory loss and impaired learning involve measuring the ability of animals to remember a discrete event. These tests include the Morris Water Maze and the passive avoidance procedure. In the Morris Water Maze, animals are allowed to swim in a tank divided into four quadrants, only one of which has a safety platform beneath the water. The platform is removed and the animals are tested for how long they search the correct quadrant verse the incorrect quadrants. In the passive avoidance procedure the animal remembers the distinctive environment in which a mild electric shock is delivered and avoids it on a second occasion. A variant of the passive avoidance procedure makes use of a rodent's preference for dark enclosed environments over light open ones. Further discussion can be found in Crawley, J. N., 1981, Pharmacol. Biochem. Behav., 15, 695-699; Costall, B. et al, 1987, Neuropharmacol., 26, 195-200; Costall, B. et al., 1989, Pharmacol. Biochem. Behav., 32, 777-785; Barnes, J. M. et al., 1989, Br. J. Pharmacol., 98 (Suppl) 693P; Barnes, J. M. et al. 1990, Pharmacol. Biochem. Behav., 35, 955-962.
In the present example, rats were injected intraventricularly with bryostatin-1 and trained for 4 days (following standard protocols). Retention was assessed on the 5th day. […] Acquisition of memory was measured as time spent in the relevant quadrant (5th day). […] (See, FIG. 4). Bryostatin is capable of being used at concentrations to improve cognition that are 300 to 300,000 times lower than the concentration used to treat tumors.

PKCα isozyme [3] = target: T1, PKCα isozyme (Homo sapiens, UniProt P17252); conditions: cited from earlier work
T1 construct: Fibroblasts were washed twice with ice-cold PBS, scraped in PBS, and collected by low-speed centrifugation; endogenous in cells; host or cells: cultured skin fibroblasts from Coriell Cell Repositories (AG07141, AG06241, AG06848)

patients = conditions: cited from earlier work
PKCα isozyme [4] = target: T1, PKCα isozyme; assay: PKC translocation to the cell membrane (immunoblot of cytosolic and membranous fractions of fibroblasts); type: cell-based
Description: (§1) Cultured skin fibroblasts were obtained from the Coriell Cell Repositories and grown using the general guidelines established for their culture with slight modifications (Cristofalo & Carptentier, 1988; Hirashima et al., 1996). The culture medium in which cells were grown was Dulbecco's modified Eagle's medium (GIBCO) supplemented with 10% calf serum (Biofluids, Inc.). Fibroblasts from control cell lines (AC), cases AG07141 and AG06241, and a familial AD (FAD) case (AG06848) were utilized.
Immunoblot experiments were conducted using well-established procedures (Dunbar, 1994). Cells were grown to confluency (˜90%) in 6 cm Petri dishes. […] Fibroblasts were washed twice with ice-cold PBS, scraped in PBS, and collected by low-speed centrifugation. The pellets were re-suspended in the following homogenization buffer: 20 mM Tris-HCl, pH 7.5, 2 mM EDTA, 2 mM EGTA, 5 mM DTT, 0.32 M sucrose, and protease inhibitor cocktail (Sigma). Hemogenates were obtained by sonication, and centrifuged at […] for 20 minutes, and the supernatants were used as the cytosolic fraction. The pellets were homogenized in the same buffer containing 1.0% Triton X-100, incubated in ice for 45 minutes, and centrifuged at ˜12,000 g for 20 minutes. The supernatant from this batch was used as the membranous fraction. After protein determination, 20 μg of protein were diluted in 2× electrophoresis sample buffer (Novex), boiled for 5 minutes, run on 10% acrylamide gel, and transferred electrophoretically to a PVDF membrane. The membrane was saturated with 5% milk blocker by incubating it at room temperature for an hour. The primary antibody for PKC isoform (Transduction Laboratories) was diluted (1:1000) in blocking solution and incubated with the membrane overnight at 4° C. After incubation with the secondary antibody, alkaline phosphatase anti-mouse IgG (Vector Laboratories), the membrane was developed using a chemoluminescent substrate (Vector Laboratories) per the manufacturer's instructions. The band intensities were quantified by densitometry using a BioRad GS-800 calibrated scanning densitometer and Multianalyst software (BioRad).

tumor promotion = conditions: cited from earlier work
sAPPα secretion = sAPPα secretion in cultured human skin fibroblasts (immunoblot, antibody 6E10); type: cell-based
Description: as §1

Compound	cognitive abilities [1]	mortality and morbidity [1]	diacylglycerol-protein kinase C activation [2]	memory or retention: time spent in the relevant quadrant (rats; 5th day, versus sham injection)	time to improved cognition compared to control rats (rats; FIG. 4)	learning: escape latency from trial to trial (rats; trained for 4 days, versus sham injection)	shape of the dose response curve as PKC activator (PKCα isozyme [3])	tolerability (patients; 20 μg/m^2 once per week for 3 weeks (Weitman et al. 1999))	maximum-tolerated dose (patients; 1 hour i.v. infusion once every 2 weeks for 6 weeks (Prendville et al. 1993))	maximum tolerated dose (patients; once per week for 8 weeks (Jayson et al. 1995))	activation of PKC (immunoblot, FIG. 7) (PKCα isozyme [4]; 0.1 nM bryostatin-1, 30 minutes after delivery)	response demonstrating the activation of PKC (FIG. 7) (PKCα isozyme [4]; AD cells, FIG. 7)	time of maximal PKC translocation to the cell membrane (PKC activation) (PKCα isozyme [4]; bryostatin)	PKC translocation after the maximum, compared with basal level (PKCα isozyme [4]; partial decline after 30 min, followed up to six hours)	tumor promotion activity (tumor promotion)	sAPP secretion (sAPPα secretion; 0.1 nM bryostatin-1, compared to vehicle alone and benzolactam)	sAPPα secretion, efficacy compared with controls and Benzolactam (FIG. 1) (sAPPα secretion; FIG. 1)	sAPP secretion (sAPPα secretion; bryostatin at 0.01 nM)
vitamin E	did not enhance cognitive abilities	reduced mortality and morbidity	normalize diacylglycerol-protein kinase C activation	–	–	–	–	–	–	–	–	–	–	–	–	–	–	–
CCC/C=C/C=C/C(=O)O[C@H]1/C(=C/C(=O)OC)C[C@H]2C[C@H]([C@@H](C)O)OC(=O)C[C@H](O)C[C@@H]3C[C@H](OC(C)=O)C(C)(C)[C@](O)(C[C@@H]4C/C(=C/C(=O)OC)C[C@H](/C=C/C(C)(C)[C@]1(O)O2)O4)O3 [bryostatin-1]	–	–	–	significantly enhanced	≤ 2 days	significantly lower	biphasic	well tolerated and were not associated with myalgia or other side effects	50 μg/m^2	25 μg/m^2	easily detectable	powerful response	30 min	remains higher than basal translocation levels up to six hours	devoid of tumor promotion activity	dramatic increase of sAPP secretion	greater efficacy at lower concentrations than controls and Benzolactam	still proved effective to increase sAPP secretion
